The values below come from PMC9516332 (Frontiers in Oncology, 2022).

In experiment [1] the target is panel of 255 wild-type kinases (Homo sapiens, UniProt O60674). Particulars: kinase JAK2, 1 µmol/L single concentration, cited from earlier work.
Experiment [2] deals with panel of 255 wild-type kinases (Homo sapiens, UniProt P04626). The note with it: kinase HER2, 1 µmol/L single concentration, cited from earlier work.
The target in experiment [3] is panel of 255 wild-type kinases (Homo sapiens, UniProt P12931). Particulars: kinase SRC, 1 µmol/L single concentration, cited from earlier work.
Experiment [4] concerns the target panel of 255 wild-type kinases (Homo sapiens, UniProt P16234). Particulars: kinase PDGFRα, 1 µmol/L single concentration, cited from earlier work.
Experiment [5] has as its target T1, panel of 255 wild-type kinases (Homo sapiens, UniProt P29322).
T1 sequence (P29322 28-1005): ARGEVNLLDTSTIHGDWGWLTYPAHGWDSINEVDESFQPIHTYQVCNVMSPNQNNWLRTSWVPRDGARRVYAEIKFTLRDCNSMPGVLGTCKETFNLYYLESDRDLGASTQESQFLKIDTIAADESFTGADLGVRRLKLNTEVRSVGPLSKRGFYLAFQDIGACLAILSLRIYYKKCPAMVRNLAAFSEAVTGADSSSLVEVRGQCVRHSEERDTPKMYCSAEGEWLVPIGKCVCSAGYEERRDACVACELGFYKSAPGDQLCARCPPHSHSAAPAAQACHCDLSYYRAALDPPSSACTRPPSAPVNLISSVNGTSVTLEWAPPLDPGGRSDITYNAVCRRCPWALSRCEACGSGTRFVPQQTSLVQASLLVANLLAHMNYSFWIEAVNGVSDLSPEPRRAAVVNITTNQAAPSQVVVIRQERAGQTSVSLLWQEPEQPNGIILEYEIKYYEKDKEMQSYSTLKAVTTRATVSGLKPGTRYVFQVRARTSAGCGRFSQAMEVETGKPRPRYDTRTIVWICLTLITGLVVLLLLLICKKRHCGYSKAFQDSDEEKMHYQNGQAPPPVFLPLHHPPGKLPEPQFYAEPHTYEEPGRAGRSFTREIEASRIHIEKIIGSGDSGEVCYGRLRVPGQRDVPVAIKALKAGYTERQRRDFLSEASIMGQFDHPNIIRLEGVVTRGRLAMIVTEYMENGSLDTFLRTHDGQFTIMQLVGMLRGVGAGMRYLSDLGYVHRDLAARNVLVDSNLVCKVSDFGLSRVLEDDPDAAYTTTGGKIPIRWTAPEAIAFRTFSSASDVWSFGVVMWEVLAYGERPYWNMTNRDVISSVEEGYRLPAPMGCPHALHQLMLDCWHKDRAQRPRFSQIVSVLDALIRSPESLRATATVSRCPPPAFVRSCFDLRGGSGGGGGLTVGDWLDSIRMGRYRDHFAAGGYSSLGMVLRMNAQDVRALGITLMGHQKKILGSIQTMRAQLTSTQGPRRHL
Particulars: kinase EPHA8, 1 µmol/L single concentration, cited from earlier work.

Experiment [6] concerns the target panel of 255 wild-type kinases (Homo sapiens, UniProt P49137). The note with it: kinase MAPKAPK2, 1 µmol/L single concentration, cited from earlier work.
Experiment [7] has as its target panel of 255 wild-type kinases (Homo sapiens, UniProt P51617). Particulars: kinase IRAK1, 1 µmol/L single concentration, cited from earlier work.
The target of experiment [8] is panel of 255 wild-type kinases (Homo sapiens, UniProt Q96RG2). Particulars: PASK, 1 µmol/L single concentration, cited from earlier work.
Experiment [9] has as its target panel of 255 wild-type kinases (Homo sapiens, UniProt Q9UBS0). The note with it: p70S6Kβ, 1 µmol/L single concentration, cited from earlier work.
Where [10] appears, read: ref DOI: 10.1158/1535-7163.MCT-18-0877.
Where [11] appears, read: ref DOI: 10.1371/journal.pone.0092146.

Where two headings read alike, the source gives them in different places.

Regarding `Cc1cc(Nc2ncc(Cl)c(Nc3ccccc3S(=O)(=O)C(C)C)n2)c(OC(C)C)cc1C1CCNCC1` [ceritinib], in the experiment on 134 cancer cell lines, the IC50 came to 3.85 µM. The “%-inhibition at 1 µmol/L, JAK2” value in experiment [1] (setting [10]) is listed as -5.35%. In addition, in experiment [2] (setting [10]), the “%-inhibition at 1 µmol/L, HER2” value is reported as 9%. Moreover, the “%-inhibition at 1 µmol/L, SRC” value in experiment [3] (setting [10]) is listed as 9%. In addition, the “%-inhibition at 1 µmol/L, PDGFRα” value in [4] (setting [10]) is reported as 61%. In addition, the “%-inhibition at 1 µmol/L, EPHA8” value in [5] (setting [10]) is recorded as 6%. Also, the “%-inhibition at 1 µmol/L, MAPKAPK2” value in [6] (setting [10]) is -14%. For the same molecule, in experiment [7] (setting [10]), the “%-inhibition at 1 µmol/L, IRAK1” value is listed as 9%. In experiment [8] (setting [10]), the “%-inhibition, PASK” value is given as 1.28%. Besides, the “%-inhibition, p70S6Kβ” value in experiment [9] (setting [10]) is listed as 70%.

In turn, `O=C(c1ccc(F)c(F)c1Nc1ccc(I)cc1F)N1CC(O)([C@@H]2CCCCN2)C1` [cobimetinib] showed an IC50 with 134 cancer cell lines of 0.056 µM. In addition, in experiment [1] (setting [10]), the “%-inhibition at 1 µmol/L, JAK2” value was 1.2%. For the same molecule, in experiment [2] (setting [10]), the “%-inhibition at 1 µmol/L, HER2” value is -1.21%. Moreover, the “%-inhibition at 1 µmol/L, SRC” value in experiment [3] (setting [10]) is 6.45%. Also, the “%-inhibition at 1 µmol/L, PDGFRα” value in experiment [4] (setting [10]) is 11%. Also, the “%-inhibition at 1 µmol/L, EPHA8” value in experiment [5] (setting [10]) was -5.33%. In addition, the “%-inhibition at 1 µmol/L, MAPKAPK2” value in [6] (setting [10]) is reported as -7%. Moreover, in [7] (setting [10]), the “%-inhibition at 1 µmol/L, IRAK1” value is reported as 0.65%. Besides, in [8] (setting [10]), the “%-inhibition, PASK” value was 1.07%. The “%-inhibition, p70S6Kβ” value in experiment [9] (setting [10]) was 5.59%.

With `CO[C@@H]1[C@H](N(C)C(=O)c2ccccc2)C[C@H]2O[C@]1(C)n1c3ccccc3c3c4c(c5c6ccccc6n2c5c31)C(=O)NC4` [midostaurin], the “%-inhibition at 1 µmol/L, JAK2” value in [1] (setting [10]) is reported as 99%. Further, in experiment [2] (setting [10]), the “%-inhibition at 1 µmol/L, HER2” value is reported as 63%. For the same molecule, in experiment [3] (setting [10]), the “%-inhibition at 1 µmol/L, SRC” value is on record as 79%. The “%-inhibition at 1 µmol/L, PDGFRα” value in experiment [4] (setting [10]) is on record as 99%. The “%-inhibition at 1 µmol/L, EPHA8” value in experiment [5] (setting [10]) is 6.51%. In [6] (setting [10]), the “%-inhibition at 1 µmol/L, MAPKAPK2” value is recorded as -12%. For the same molecule, the “%-inhibition at 1 µmol/L, IRAK1” value in experiment [7] (setting [10]) is 10%. In addition, the “%-inhibition, PASK” value in experiment [8] (setting [10]) was 6%. Besides, the “%-inhibition, p70S6Kβ” value in experiment [9] (setting [10]) is reported as 69%.

With `C=CC(=O)Nc1cc(Nc2nccc(-c3cn(C)c4ccccc34)n2)c(OC)cc1N(C)CCN(C)C` [osimertinib], the “%-inhibition at 1 µmol/L, JAK2” value in [1] (setting [10]) is 4%. Besides, the “%-inhibition at 1 µmol/L, HER2” value in experiment [2] (setting [10]) is recorded as 100%. Also, the “%-inhibition at 1 µmol/L, SRC” value in experiment [3] (setting [10]) is 9%. The “%-inhibition at 1 µmol/L, PDGFRα” value in experiment [4] (setting [10]) is reported as 69%. The “%-inhibition at 1 µmol/L, EPHA8” value in experiment [5] (setting [10]) is listed as -8%. For the same molecule, the “%-inhibition at 1 µmol/L, MAPKAPK2” value in experiment [6] (setting [10]) is -9%. Moreover, in [7] (setting [10]), the “%-inhibition at 1 µmol/L, IRAK1” value is listed as 7%. For the same molecule, the “%-inhibition, PASK” value in experiment [8] (setting [10]) is 2.58%. The “%-inhibition, p70S6Kβ” value in experiment [9] (setting [10]) was 20%.

`CC(=O)Nc1cccc(-n2c(=O)n(C3CC3)c(=O)c3c(Nc4ccc(I)cc4F)n(C)c(=O)c(C)c32)c1` [trametinib] gave an IC50 with 134 cancer cell lines of 0.076 µM. In addition, in experiment [1] (setting [11]), the “%-inhibition at 1 µmol/L, JAK2” value was 1.75%. The “%-inhibition at 1 µmol/L, HER2” value in experiment [2] (setting [11]) is listed as -5.36%. In experiment [3] (setting [11]), the “%-inhibition at 1 µmol/L, SRC” value is on record as -5.4%. Also, the “%-inhibition at 1 µmol/L, PDGFRα” value in [4] (setting [11]) was 4.53%. The “%-inhibition at 1 µmol/L, EPHA8” value in [5] (setting [11]) is reported as -8%. Further, the “%-inhibition at 1 µmol/L, MAPKAPK2” value in [6] (setting [11]) was -0.335%. Also, the “%-inhibition at 1 µmol/L, IRAK1” value in [7] (setting [11]) was 6%. In experiment [8] (setting [11]), the “%-inhibition, PASK” value was -0.187%. The “%-inhibition, p70S6Kβ” value in [9] (setting [11]) is on record as -1%.

In the experiment with 134 cancer cell lines, `CCCS(=O)(=O)Nc1ccc(F)c(C(=O)c2c[nH]c3ncc(-c4ccc(Cl)cc4)cc23)c1F` [vemurafenib] registered an IC50 of more than 31.6 µM. Besides, the “%-inhibition at 1 µmol/L, JAK2” value in experiment [1] (setting [11]) is reported as 18%. In addition, the “%-inhibition at 1 µmol/L, HER2” value in [2] (setting [11]) is 2%. The “%-inhibition at 1 µmol/L, SRC” value in [3] (setting [11]) was 52%. Besides, the “%-inhibition at 1 µmol/L, PDGFRα” value in [4] (setting [11]) is recorded as 87%. For the same molecule, in [5] (setting [11]), the “%-inhibition at 1 µmol/L, EPHA8” value is 7%. For the same molecule, the “%-inhibition at 1 µmol/L, MAPKAPK2” value in [6] (setting [11]) is on record as -16%. Moreover, the “%-inhibition at 1 µmol/L, IRAK1” value in experiment [7] (setting [11]) was 10%. Moreover, the “%-inhibition, PASK” value in experiment [8] (setting [11]) is reported as 2.35%. The “%-inhibition, p70S6Kβ” value in experiment [9] (setting [11]) is reported as 0.235%.

The term IC50 denotes the midpoint of a concentration-inhibition curve. A lower IC50 goes with greater potency in that assay.
